Assay results reported in US8557844B2, “Substrate reduction therapy” (The Chancellor, Masters and Scholars of the University of …, priority 2007, dated 2013).
“Also recorded” adds a separate entry of the source.

How the values were obtained:
RAW mouse macrophages [1] = experiment: Cholesterol levels (filipin) in RAW cells treated with AY9944; assay type: cell-based; details: for cholesterol levels (filipin): 1 mM AY9944 in LPDS medium
Protocol: (§1) RAW mouse macrophages grown in medium supplemented with LPDS for 5 days to elevate endogenous cholesterol biosynthesis were treated with […] AY9944 in medium supplemented with lipoprotein deficient serum (LPDS) for a further 5 or 10 days to induce storage of 7-DHC. […] This correlated with abnormal transport of a fluorescent GSL analogue of lactosylceramide (LacCer)—BODIPY-LacCer.
(§2) FIG. 4 consists of micrographs which together show the induction of an NPC phenotype in cholesterol null RAW cells. All RAW cells were grown in medium supplemented with LPDS for 5 days (controls) to reduce exogenously derived cholesterol prior to addition of 1 μM AY9944 to inhibit endogenous cholesterol synthesis for a further 5 days or 10 days (as indicated). Alterations in sphingolipid trafficking were measured in live cells using BODIPY-LacCer (lower panels), cholesterol levels in fixed cells were measured with filipin (upper panels). Endocytic cholesterol storage in cholesterol depleted cells was induced by growth in medium supplemented with 10% FCS for a further 24 h. For each condition n=2, images are representative of at least 10 captured fields, scale bar=5 μm.

RAW mouse macrophages [2] = experiment: BODIPY-LacCer transport in RAW cells treated with AY9944; assay type: cell-based
Protocol: as §1, §2

[3] = biological target: T1, 3β-hydroxysterol Δ7-reductase (Mus musculus, UniProt O88455); details: cited from earlier work
T1 construct: RAW mouse macrophages grown in medium supplemented with LPDS for 5 days to elevate endogenous cholesterol biosynthesis; endogenous in cells; host or cells: RAW mouse macrophages
T1 sequence (O88455 1-471): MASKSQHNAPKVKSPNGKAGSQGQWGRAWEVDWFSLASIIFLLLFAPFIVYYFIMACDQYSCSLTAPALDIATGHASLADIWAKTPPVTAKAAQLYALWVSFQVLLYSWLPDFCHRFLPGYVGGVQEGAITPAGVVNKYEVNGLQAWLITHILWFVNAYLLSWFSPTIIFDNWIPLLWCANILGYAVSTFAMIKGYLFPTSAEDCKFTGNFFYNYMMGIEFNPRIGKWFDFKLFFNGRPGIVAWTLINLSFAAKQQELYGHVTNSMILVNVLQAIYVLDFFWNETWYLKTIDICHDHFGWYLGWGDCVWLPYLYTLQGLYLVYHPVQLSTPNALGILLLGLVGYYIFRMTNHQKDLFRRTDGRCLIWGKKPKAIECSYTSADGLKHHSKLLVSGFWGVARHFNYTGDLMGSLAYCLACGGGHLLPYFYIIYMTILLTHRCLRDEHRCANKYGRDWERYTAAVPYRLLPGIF

[4] = tested on: NPC1 null (CT43) CHO cells; experiment: Total GSL level (HPLC) in NPC1 null CHO cells; assay type: cell-based; details: 50 μM NB-DGJ, 5 days, FIG. 3A
From the text: (§3) It has been shown that Niemann-Pick C1 cells (NPC1 null CHO cells) and normal cells treated with amphiphiles to induce an NPC1 phenotype, in addition to free cholesterol storage, have glycosphingolipid (GSL) storage (FIG. 3A) and abnormalities in endocytic transport (FIG. 3B) including defective early to late endosomal transport and late endosomal to Golgi transport (J Biol Chem 2004; 279(25):26167-75). NPC1 cells have a 2-fold increase in total GSLs (HPLC quantified) compared to controls (FIG. 3A). […] This correction in GSL levels is associated with a correction in endocytic transport defects (J Biol Chem 2004; 279(25):26167-75). Fluorescently labelled lactosylceramide (BODIPY-LacCer), a GSL normally transported through the endocytic system to the Golgi (FIG. 3Bi), is misdirected to the LE/Lys system in untreated NPC1 cells (FIG. 3Bii), indicative of GSL storage (J Biol Chem 2004; 279(25):26167-75; J Biol Chem 2003; 278(23):20961-70; Am J Hum Genet 2001; 68(6):1361-72).

[5] = tested on: NPC1 null (CT43) CHO cells; experiment: BODIPY-LacCer pulse/chase endocytic transport in NPC1 null CHO cells; assay type: cell-based; details: 50 μM NB-DGJ, 5 days, 45 min pulse, 1 h chase, FIG. 3B
From the text: as §3

SLOS (DHCR7−/−) MEFs = assay type: cell-based, murine; details: 50 μM NB-DGJ, 5 days, medium with LPDS
[6] = tested on: DHCR7−/− mouse embryonic fibroblasts; experiment: Nile red staining of ER neutral lipids in DHCR7−/− MEFs; assay type: cell-based; design: dose or concentration left out as unconfirmed; details: 5 days
Protocol: DHCR7−/− mouse embryonic fibroblasts were grown under the conditions indicated in FIG. 9 (FCS=foetal calf serum, LPDS=lipoprotein deficient serum) for 5 days prior to staining of neutral lipids with Nile red. Under wild-type conditions (growth in FCS) Nile red stains the endoplasmic reticulum (ER) as expected. Inducing DHCR7−/− cells into a Smith-Lemli-Opitz phenotype by growth in LPDS leads to a depletion in ER neutral lipids and an elevation in punctate staining indicative of a block in transport to the ER. […] N=2.

[7] = cited from earlier work
[8] = tested on: total ganglioside and GM1 content in cerebrum-brainstem; details: cited from earlier work
GSL biosynthesis = details: cited from earlier work
[9] = cited from earlier work; remark: listed apart in the source
NPC1 cells = details: depletion of stored GSLs with NB-DGJ; cited from earlier work

SMILES | cholesterol levels (filipin) (RAW mouse macrophages [1]; 5 days) | cholesterol levels (filipin) (RAW mouse macrophages [1]; 10 days) | localisation of exogenously derived cholesterol (RAW mouse macrophages [1]; 10 day AY9944, then medium with 10% FCS) | BODIPY-LacCer transport (RAW mouse macrophages [2]; 5 days post AY9944, 30 min pulse, 90 min chase) | BODIPY-LacCer transport (RAW mouse macrophages [2]; 10 days post AY9944) | 7-DHC level [3] | GSL storage [4] | BODIPY-LacCer endocytic transport [5] | endogenous ganglioside GM1 / GSL trafficking from LE/Lys to Golgi (SLOS (DHCR7−/−) MEFs) | ER neutral lipid levels (Nile red) [6] | neurological side effects ([7]; adult mice) | CNS penetration ([7]; mouse, in vivo) | effects on behaviour or CNS development ([7]; mouse, in vivo) | total ganglioside and GM1 content [8] | inhibition of GSL biosynthesis relative to NB-DNJ (GSL biosynthesis) | tolerability ([9]; mouse models of GSL storage diseases) | side effect activities relative to NB-DNJ ([9]; mouse, in vivo) | HRP uptake (NPC1 cells)
Clc1ccccc1CNCC1CCC(CNCc2ccccc2Cl)CC1 (stereo not drawn) [AY9944] | slight decrease in cholesterol levels | markedly reduced | exogenously derived cholesterol became trapped in punctate LE | transported to the Golgi | trapped in punctate LE/Lys | accumulation of 7-DHC |  |  |  |  |  |  |  |  |  |  |  | 
CCCCN1C[C@H](O)[C@@H](O)[C@@H](O)[C@H]1CO [NB-DGJ, N-butyldeoxygalactonojirimycin] |  |  |  |  |  |  | reduction in GSL storage | correction in abnormal BODIPY-LacCer endocytic transport; also recorded: correction in BODIPY-LacCer transport to the Golgi | corrected altered endogenous ganglioside GM1 trafficking | restoration of normal levels of neutral lipids at the ER | not to cause neurological side effects | penetrate the CNS | without significant effects on behaviour or CNS development | marked reduction | comparably to NB-DNJ | very well tolerated | lacks certain side effect activities associated with NB-DNJ | correction in HRP uptake
